Experimental data: US11401278B2, “Macrocyclic indole derivatives” (The Broad Institute, Inc., priority 2017, dated 2022)
Counter-ions that a name gives are not always drawn. Like-named read-outs stand apart in the source and are kept apart here.

What was measured:
SUDHL10 [1] = experiment: Antiproliferation assay (Assay 7), SUDHL10; assay type: cell-based; details: CellTiter-Glo, median, read-out: Antiproli SUDHL10 [M] (median) IC50
Procedure: (§1) Assessment of the Anti-Proliferative Effect of Compounds in Different Cell Lines
(§2) The impact of compounds on the proliferation of different cell lines was assessed using the CellTiter-Glo® Luminescent Cell Viability reagent from Promega (G7573).
(§3) In parallel, cells were plated in a reference (day 0) plate for time zero determination.
(§4) Rim wells were excluded. The cells were incubated for 72 hours in a humidified incubator at 37° C. The day 0 plate was measured by adding 30 μL/well of CTG solution (CellTiter-Glo® Luminescent Cell Viability reagent, Promega G7573) to time zero wells in the reference plate followed by a 10 minutes incubation and luminescence reading at 0.1 ms. using the PHERAstar FS microplate reader (BMG Labtech).
(§5) After 72 hours incubation, the treated plates were measured in the same way as the day 0 plate mentioned above.

[2] = from CCOC(=O)c1[nH]c2c(-c3c(CN(CCCN4CCOCC4)S(=O)(=O)CCCCl)nn(C)c3CC)cccc2c1CCCOc1cccc2ccccc12; amine bond; NaH; DMF; 25.0 mM; 60.0 °C; 6.0 h; 2 steps
SNU-16 = experiment: Antiproliferation assay (Assay 7), SNU-16; assay type: cell-based; details: Homo sapiens, CellTiter-Glo, 72 hours, median, read-out: Antiproli SNU-16 [M] median IC50
Procedure: as §1, §2, §3, §4, §5

SK-MEL-2 = experiment: Antiproliferation assay (Assay 7), SK-MEL-2; assay type: cell-based; details: Homo sapiens, CellTiter-Glo, 72 hours, median, read-out: Antiproli SK-MEL-2 [M] median IC50
Procedure: as §1, §2, §3, §4, §5

A-431 = experiment: Antiproliferation assay (Assay 7), A-431; assay type: cell-based; details: Homo sapiens, CellTiter-Glo, 72 hours, median, read-out: Antiproli A-431 [M] median IC50
Procedure: as §1, §2, §3, §4, §5

DM-S114 = experiment: Antiproliferation assay (Assay 7), DM-S114; assay type: cell-based; details: Homo sapiens, DMS-114, CellTiter-Glo, 72 hours, median, read-out: Antiproli DM-S114 [M] median IC50
Procedure: as §1, §2, §3, §4, §5

PA-1 = experiment: Antiproliferation assay (Assay 7), PA-1; assay type: cell-based; details: Homo sapiens, CellTiter-Glo, 72 hours, median, read-out: Antiproli PA-1 [M] median IC50
Procedure: as §1, §2, §3, §4, §5

SUDHL10 [3] = tested on: SUDHL10

SMILES: Cc1c2c(nn1C)CN(C)S(=O)(=O)CCCn1c(C(=O)O)c(CCCOc3cccc4ccccc34)c3ccc(Cl)c-2c31 (racemic) [Example 4, (rac)-4-Chloro-2,3,14-trimethyl-7-{3-[(naphthalen-1-yl)oxy]propyl}-13,13-dioxo-10,11,12,13,14,15-hexahydro-2H-13λ^6-pyrazolo[3′,4′:4,5][1,2,8]thiadiazacycloundecino-[6,7,8-hi]indole-8-carboxylic acid]
- IC50 (SUDHL10 [1]; Homo sapiens, SU-DHL10, 72 h): 5.6e-07 M

SMILES: CCc1c2c(nn1C)CN(CCCN1CCOCC1)S(=O)(=O)CCCn1c(C(=O)O)c(CCCOc3cccc4ccccc34)c3cccc-2c31 (racemic) [Example 15, (rac)-12-Ethyl-11-methyl-8-(3-morpholinopropyl)-1-(3-(naphthalen-1-yloxy)propyl)-4,5,6,8,9,11-hexahydropyrazolo[3′,4′:4,5][1,2,8]thiadiazacycloundecino[6,7,8-hi]indole-2-carboxylic acid 7,7-dioxide 2,2,2-trifluoroacetic acid salt]
- ring closure, yield of all isomers [2]: 48.2%

SMILES: CCc1c2c(nn1C)CN(CC)S(=O)(=O)CCCn1c(C(=O)O)c(CCCOc3cccc4cc(F)ccc34)c3ccc(Cl)c-2c31 (racemic) [Example 56, (rac)-4-chloro-3,14-diethyl-7-{3-[(6-fluoro-1-naphthyl)oxy]propyl}-2-methyl-11,12,14,15-tetrahydro-2H,10H-pyrazolo[3′,4′:4,5][1,2,8]thiadiazacycloundecino[6,7,8-hi]indole-8-carboxylic acid 13,13-dioxide]
- IC50 (SNU-16): 1.05e-06 M
- IC50 (SK-MEL-2): 1.14e-06 M
- IC50 (A-431): 1.18e-06 M
- IC50 (DM-S114): 5.61e-07 M
- IC50 (PA-1): 7.07e-07 M

SMILES: CCc1c2c(nn1C)C(CCC1CCOCC1)N(C)S(=O)(=O)CCCn1c(C(=O)O)c(CCCOc3cccc4cc(F)ccc34)c3ccc(Cl)c-2c31 (racemic) [Example 60, (rac)-4-chloro-3-ethyl-7-{3-[(6-fluoro-1-naphthyl)oxy]propyl}-2,14-dimethyl-15-[2-(tetrahydro-2H-pyran-4-yl)ethyl]-11,12,14,15-tetrahydro-2H,10H-pyrazolo[3′,4′:4,5][1,2,8]thiadiazacycloundecino[6,7,8-hi]indole-8-carboxylic acid 13,13-dioxide (Racemate 1)]
- IC50 (SNU-16): 2.54e-06 M
- IC50 (SK-MEL-2): 5.08e-06 M
- IC50 (A-431): 2.07e-06 M
- IC50 (PA-1): 1.84e-06 M

SMILES: CCc1c2c(nn1C)C(CCN1CCOCC1)N(C)S(=O)(=O)CCCn1c(C(=O)O)c(CCCOc3cccc4cc(F)ccc34)c3ccc(Cl)c-2c31 (racemic) [Example 73, (rac)-(4-chloro-3-ethyl-7-{3-[(6-fluoronaphthalen-1-yl)oxy]propyl}-2,14-dimethyl-15-[2-(morpholin-4-yl)ethyl]-13,13-dioxo-10,11,12,13,14,15-hexahydro-2H-13lambda^6-pyrazolo[3′,4′:4,5][1,2,8]thiadiazacycloundecino[6,7,8-hi]indole-8-carboxylic acid (Racemate 1)]
- IC50 (SUDHL5): 20 nM
- IC50 (SUDHL10 [3]): 19 nM

SMILES: Cc1c2c(nn1C)CN(C)S(=O)(=O)CCCn1c(C(=O)O)c(CCCOc3cccc4ccccc34)c3ccc(Cl)c-2c31 (single isomer, unassigned; enantiomer 1) [Example 5, 4-Chloro-2,3,14-trimethyl-7-{3-[(naphthalen-1-yl)oxy]propyl}-13,13-dioxo-10,11,12,13,14,15-hexahydro-2H-13λ^6-pyrazolo[3′,4′:4,5][1,2,8]thiadiazacycloundecino[6,7,8-hi]indole-8-carboxylic acid-N-ethylethanamine salt (Enantiomer 1)]
- IC50 (SUDHL10 [1]; 72 hours): 4.4e-07 M
